Patent US20250242064A1, “CXCR4-TARGETING COMPOUNDS, AND METHODS OF MAKING AND USING THE SAME” (PROVINCIAL HEALTH SERVICES AUTHORITY, priority 2022, published 2025)
Where a SMILES comes first, the peptide text is derived from it. Bridges are numbered along the chain shown (N, C = ends). [ ]: non-standard residue; d: D form. The star is where a group is joined. X3 = O=C(O)CN1CCN(CC(=O)O)CCN(CC(=O)N[C@@H](CS(=O)(=O)O)C(=O)N[C@@H](CCCCNC(=O)CCCc2ccc(Br)cc2)C(=O)*)CCN(CC(=O)O)CC1; 2Nal = N[C@@H](Cc1ccc2ccccc2c1)C(=O)O; Lys(iPr) = CC(C)NCCCC[C@H](N)C(=O)O

Experiment: in vivo
Parameters: species or system mice
Details: male, mouse, iv, total radioactivity
In short: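 Male NRG mice bearing subcutaneous Z138 mantle cell lymphoma xenografts (5×10^6 cells, grown to 200-300 mm^3) injected intravenously under isoflurane with 68Ga-labelled tracers. Harvested tissues weighed and gamma-counted; uptake expressed as % ID/g.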

[1] = NOD.Cg-Rag1tm1Mom Il2rgtm1Wjl/SzJ (NRG), Biodistribution: Adrenals
[2] = NOD.Cg-Rag1tm1Mom Il2rgtm1Wjl/SzJ (NRG), Biodistribution: Blood
[3] = NOD.Cg-Rag1tm1Mom Il2rgtm1Wjl/SzJ (NRG), Biodistribution: Bone
[4] = NOD.Cg-Rag1tm1Mom Il2rgtm1Wjl/SzJ (NRG), Biodistribution: Brain
[5] = NOD.Cg-Rag1tm1Mom Il2rgtm1Wjl/SzJ (NRG), Biodistribution: Heart
[6] = NOD.Cg-Rag1tm1Mom Il2rgtm1Wjl/SzJ (NRG), Biodistribution: Kidneys
[7] = NOD.Cg-Rag1tm1Mom Il2rgtm1Wjl/SzJ (NRG), Biodistribution: Liver
[8] = NOD.Cg-Rag1tm1Mom Il2rgtm1Wjl/SzJ (NRG), Biodistribution: Lungs
[9] = NOD.Cg-Rag1tm1Mom Il2rgtm1Wjl/SzJ (NRG), Biodistribution: Muscle
[10] = NOD.Cg-Rag1tm1Mom Il2rgtm1Wjl/SzJ (NRG), Biodistribution: Pancreas
[11] = NOD.Cg-Rag1tm1Mom Il2rgtm1Wjl/SzJ (NRG), Biodistribution: Small Intestine
[12] = NOD.Cg-Rag1tm1Mom Il2rgtm1Wjl/SzJ (NRG), Biodistribution: Spleen
[13] = NOD.Cg-Rag1tm1Mom Il2rgtm1Wjl/SzJ (NRG), Biodistribution: Stomach
[14] = NOD.Cg-Rag1tm1Mom Il2rgtm1Wjl/SzJ (NRG), Biodistribution: Testes
[15] = NOD.Cg-Rag1tm1Mom Il2rgtm1Wjl/SzJ (NRG), Biodistribution: Z138 Tumor
[16] = NOD.Cg-Rag1tm1Mom Il2rgtm1Wjl/SzJ (NRG), Ratio Tumor-to-Blood
[17] = NOD.Cg-Rag1tm1Mom Il2rgtm1Wjl/SzJ (NRG), Ratio Tumor-to-Bone
[18] = NOD.Cg-Rag1tm1Mom Il2rgtm1Wjl/SzJ (NRG), Ratio Tumor-to-Kidney
[19] = NOD.Cg-Rag1tm1Mom Il2rgtm1Wjl/SzJ (NRG), Ratio Tumor-to-Muscle
[20] = NOD.Cg-Rag1tm1Mom Il2rgtm1Wjl/SzJ (NRG), Ratio Tumor-to-Pancreas
[21] = NOD.Cg-Rag1tm1Momll2rgtm1Wjl/SzJ (NRG), Biodistribution: Blood
[22] = NOD.Cg-Rag1tm1Momll2rgtm1Wjl/SzJ (NRG), Biodistribution: Stomach
[23] = NOD.Cg-Rag1tm1Momll2rgtm1Wjl/SzJ (NRG), Biodistribution: Testes
[24] = NOD.Cg-Rag1tm1Momll2rgtm1Wjl/SzJ (NRG), Ratio Tumor-to-Bone
[25] = NOD.Cg-Rag1tm1Momll2rgtm1Wjl/SzJ (NRG), Ratio Tumor-to-Kidney
[26] = NOD.Cg-Rag1tm1Momll2rgtm1Wjl/SzJ (NRG), Ratio Tumor-to-Muscle
[27] = NOD.Cg-Rag1tm1Momll2rgtm1Wjl/SzJ (NRG), Ratio Tumor-to-Pancreas

**Q.** With `CC(C)NCCCC[C@H](NC(=O)[C@H]1CCC(=O)N[C@@H](CCCCNC(=O)[C@H](CCCCNC(=O)CCCc2ccc(Br)cc2)NC(=O)[C@H](CS(=O)(=O)O)NC(=O)CN2CCN(CC(=O)O)CCN(CC(=O)O)CCN(CC(=O)O)CC2)C(=O)N[C@@H](Cc2ccc(O)cc2)C(=O)N[C@@H](CCCCNC(C)C)C(=O)N[C@H](CCCNC(=N)N)C(=O)N[C@@H](Cc2ccc3ccccc3c2)C(=O)N[C@H](C)C(=O)N1)C(N)=O` [[^177Lu]Lu-BL34L20, metal not drawn] (K(X3)Y[Lys(iPr)][dR][2Nal][dA][dE][Lys(iPr)]-NH2; lactam N-7) as the molecule, how does the tissue uptake at 1 h [1] read?
**A.** 2.44 %ID/g

**Q.** And the tissue uptake at 3 h [1]?
**A.** 2.29 %ID/g

**Q.** What about the tissue uptake at 24 h [1] of the same molecule?
**A.** 1.1 %ID/g

**Q.** What about the tissue uptake at 72 h [1] of the same molecule?
**A.** 0.81 %ID/g

**Q.** What about the tissue uptake at 120 h [1] of the same molecule?
**A.** 1.24 %ID/g

**Q.** And the tissue uptake at 1 h [2]?
**A.** 14.1 %ID/g

**Q.** And the tissue uptake at 3 h [2]?
**A.** 11.8 %ID/g

**Q.** What about the tissue uptake at 1 h [3] of the same molecule?
**A.** 1.02 %ID/g

**Q.** And the tissue uptake at 3 h [3]?
**A.** 0.78 %ID/g

**Q.** What about the tissue uptake at 24 h [3] of the same molecule?
**A.** 0.29 %ID/g

**Q.** What about the tissue uptake at 72 h [3] of the same molecule?
**A.** 0.26 %ID/g

**Q.** What about the tissue uptake at 120 h [3] of the same molecule?
**A.** 0.3 %ID/g

**Q.** And the tissue uptake at 1 h [4]?
**A.** 0.22 %ID/g

**Q.** What about the tissue uptake at 3 h [4] of the same molecule?
**A.** 0.2 %ID/g

**Q.** What about the tissue uptake at 24 h [4] of the same molecule?
**A.** 0.06 %ID/g

**Q.** And the tissue uptake at 72 h [4]?
**A.** 0.03 %ID/g

**Q.** And the tissue uptake at 120 h [4]?
**A.** 0.02 %ID/g

**Q.** And the tissue uptake at 1 h [5]?
**A.** 3.05 %ID/g

**Q.** And the tissue uptake at 3 h [5]?
**A.** 3.01 %ID/g

**Q.** What about the tissue uptake at 24 h [5] of the same molecule?
**A.** 0.76 %ID/g

**Q.** And the tissue uptake at 72 h [5]?
**A.** 0.25 %ID/g

**Q.** What about the tissue uptake at 120 h [5] of the same molecule?
**A.** 0.18 %ID/g

**Q.** What about the tissue uptake at 1 h [6] of the same molecule?
**A.** 4.5 %ID/g

**Q.** And the tissue uptake at 3 h [6]?
**A.** 3.98 %ID/g

**Q.** What about the tissue uptake at 24 h [6] of the same molecule?
**A.** 1.53 %ID/g

**Q.** What about the tissue uptake at 72 h [6] of the same molecule?
**A.** 0.4 %ID/g

**Q.** And the tissue uptake at 120 h [6]?
**A.** 0.33 %ID/g

**Q.** And the tissue uptake at 1 h [7]?
**A.** 2.8 %ID/g

**Q.** What about the tissue uptake at 3 h [7] of the same molecule?
**A.** 3.16 %ID/g

**Q.** What about the tissue uptake at 24 h [7] of the same molecule?
**A.** 0.84 %ID/g

**Q.** And the tissue uptake at 72 h [7]?
**A.** 0.44 %ID/g

**Q.** What about the tissue uptake at 120 h [7] of the same molecule?
**A.** 0.19 %ID/g

**Q.** What about the tissue uptake at 1 h [8] of the same molecule?
**A.** 8.78 %ID/g

**Q.** What about the tissue uptake at 3 h [8] of the same molecule?
**A.** 6.6 %ID/g

**Q.** And the tissue uptake at 24 h [8]?
**A.** 1.9 %ID/g

**Q.** And the tissue uptake at 72 h [8]?
**A.** 0.68 %ID/g

**Q.** And the tissue uptake at 120 h [8]?
**A.** 0.72 %ID/g

**Q.** And the tissue uptake at 1 h [9]?
**A.** 1.13 %ID/g

**Q.** What about the tissue uptake at 3 h [9] of the same molecule?
**A.** 0.93 %ID/g

**Q.** What about the tissue uptake at 24 h [9] of the same molecule?
**A.** 0.27 %ID/g

**Q.** And the tissue uptake at 72 h [9]?
**A.** 0.15 %ID/g

**Q.** What about the tissue uptake at 120 h [9] of the same molecule?
**A.** 0.08 %ID/g

**Q.** What about the tissue uptake at 1 h [10] of the same molecule?
**A.** 1.59 %ID/g

**Q.** What about the tissue uptake at 3 h [10] of the same molecule?
**A.** 1.25 %ID/g

**Q.** And the tissue uptake at 24 h [10]?
**A.** 1.38 %ID/g

**Q.** And the tissue uptake at 72 h [10]?
**A.** 0.12 %ID/g

**Q.** What about the tissue uptake at 120 h [10] of the same molecule?
**A.** 0.23 %ID/g

**Q.** And the tissue uptake at 1 h [11]?
**A.** 1.16 %ID/g

**Q.** What about the tissue uptake at 3 h [11] of the same molecule?
**A.** 1.02 %ID/g

**Q.** And the tissue uptake at 24 h [11]?
**A.** 0.53 %ID/g

**Q.** And the tissue uptake at 72 h [11]?
**A.** 0.11 %ID/g

**Q.** And the tissue uptake at 120 h [11]?
**A.** 0.08 %ID/g

**Q.** And the tissue uptake at 1 h [12]?
**A.** 1.92 %ID/g

**Q.** And the tissue uptake at 3 h [12]?
**A.** 1.86 %ID/g

**Q.** What about the tissue uptake at 24 h [12] of the same molecule?
**A.** 1.12 %ID/g

**Q.** And the tissue uptake at 72 h [12]?
**A.** 0.95 %ID/g

**Q.** What about the tissue uptake at 120 h [12] of the same molecule?
**A.** 0.77 %ID/g

**Q.** And the tissue uptake at 1 h [13]?
**A.** 0.52 %ID/g

**Q.** What about the tissue uptake at 3 h [13] of the same molecule?
**A.** 0.71 %ID/g

**Q.** And the tissue uptake at 1 h [14]?
**A.** 1.78 %ID/g

**Q.** What about the tissue uptake at 3 h [14] of the same molecule?
**A.** 2.81 %ID/g

**Q.** And the tissue uptake at 1 h [15]?
**A.** 5.94 %ID/g

**Q.** What about the tissue uptake at 3 h [15] of the same molecule?
**A.** 15.4 %ID/g

**Q.** And the tissue uptake at 24 h [15]?
**A.** 27.4 %ID/g

**Q.** What about the tissue uptake at 72 h [15] of the same molecule?
**A.** 23.6 %ID/g

**Q.** And the tissue uptake at 120 h [15]?
**A.** 23.6 %ID/g

**Q.** What about the tissue to tissue ratio at 1 h [16] of the same molecule?
**A.** 0.42

**Q.** And the tissue to tissue ratio at 3 h [16]?
**A.** 1.3

**Q.** What about the tissue to tissue ratio at 24 h [16] of the same molecule?
**A.** 9.65

**Q.** What about the tissue to tissue ratio at 72 h [16] of the same molecule?
**A.** 53.9

**Q.** What about the tissue to tissue ratio at 120 h [16] of the same molecule?
**A.** 71.5

**Q.** And the tissue to tissue ratio at 1 h [17]?
**A.** 3.63

**Q.** What about the tissue to tissue ratio at 3 h [17] of the same molecule?
**A.** 10.5

**Q.** What about the tissue to tissue ratio at 1 h [18] of the same molecule?
**A.** 1.32

**Q.** What about the tissue to tissue ratio at 3 h [18] of the same molecule?
**A.** 3.93

**Q.** And the tissue to tissue ratio at 1 h [19]?
**A.** 5.29

**Q.** And the tissue to tissue ratio at 3 h [19]?
**A.** 16.7

**Q.** And the tissue to tissue ratio at 72 h [19]?
**A.** 234

**Q.** And the tissue to tissue ratio at 1 h [20]?
**A.** 3.77

**Q.** And the tissue to tissue ratio at 3 h [20]?
**A.** 12.6

**Q.** And the tissue uptake at 24 h [21]?
**A.** 2.84 %ID/g

**Q.** And the tissue uptake at 72 h [21]?
**A.** 0.45 %ID/g

**Q.** And the tissue uptake at 120 h [21]?
**A.** 0.36 %ID/g

**Q.** And the tissue uptake at 24 h [22]?
**A.** 0.41 %ID/g

**Q.** What about the tissue uptake at 72 h [22] of the same molecule?
**A.** 0.13 %ID/g

**Q.** What about the tissue uptake at 120 h [22] of the same molecule?
**A.** 0.07 %ID/g

**Q.** And the tissue uptake at 24 h [23]?
**A.** 1.01 %ID/g

**Q.** And the tissue uptake at 72 h [23]?
**A.** 0.65 %ID/g

**Q.** And the tissue uptake at 120 h [23]?
**A.** 0.56 %ID/g

**Q.** What about the tissue to tissue ratio at 24 h [24] of the same molecule?
**A.** 45.3

**Q.** What about the tissue to tissue ratio at 72 h [24] of the same molecule?
**A.** 44.3

**Q.** What about the tissue to tissue ratio at 120 h [24] of the same molecule?
**A.** 27

**Q.** What about the tissue to tissue ratio at 24 h [25] of the same molecule?
**A.** 18

**Q.** And the tissue to tissue ratio at 72 h [25]?
**A.** 60.3

**Q.** What about the tissue to tissue ratio at 120 h [25] of the same molecule?
**A.** 75.5

**Q.** What about the tissue to tissue ratio at 24 h [26] of the same molecule?
**A.** 102

**Q.** And the tissue to tissue ratio at 120 h [26]?
**A.** 357

**Q.** And the tissue to tissue ratio at 24 h [27]?
**A.** 70.9

**Q.** What about the tissue to tissue ratio at 72 h [27] of the same molecule?
**A.** 206

**Q.** And the tissue to tissue ratio at 120 h [27]?
**A.** 257
